According to ChEMBL document CHEMBL3813616, “Discovery of novel 7-azaindoles as PDK1 inhibitors” (Bioorg Med Chem Lett, 2016):
Blank lines part the entries; values can stand above or below the molecule they belong to.

What was measured:
[1] = target: Mitogen-activated protein kinase 1 (Homo sapiens) (UniProt P28482); experiment: Inhibition of human ERK2 (2 to 360 residues) assessed as enzyme activity at 1 uM using 33P ATP by radioactive filter binding assay; design: scale not given: the % may be the effect or the level left
[2] = target: Interleukin-1 receptor-associated kinase 4 (Homo sapiens) (UniProt Q9NWZ3); experiment: Inhibition of human IRAK4 (14 to 460 residues) assessed as enzyme activity at 1 uM using 33P ATP by radioactive filter binding assay; design: scale not given: the % may be the effect or the level left
[3] = target: Protein kinase C gamma type (Homo sapiens) (UniProt P05129); experiment: Inhibition of human PKCgamma (1 to 697 residues) assessed as enzyme activity at 1 uM using 33P ATP by radioactive filter binding assay; design: scale not given: the % may be the effect or the level left
[4] = target: Ephrin type-B receptor 4 (Homo sapiens) (UniProt P54760); experiment: Inhibition of human EPHB4 (561 to 987 residues) assessed as enzyme activity at 1 uM using 33P ATP by radioactive filter binding assay; design: scale not given: the % may be the effect or the level left
[5] = target: Casein kinase II subunit alpha (Homo sapiens) (UniProt P68400); experiment: Inhibition of human CK2alpha (2 to 391 residues) assessed as enzyme activity at 1 uM using 33P ATP by radioactive filter binding assay; design: scale not given: the % may be the effect or the level left
[6] = target: Mitogen-activated protein kinase kinase kinase kinase 2 (Homo sapiens) (UniProt Q12851); experiment: Inhibition of human GCK (2 to 812 residues) assessed as enzyme activity at 1 uM using 33P ATP by radioactive filter binding assay; design: scale not given: the % may be the effect or the level left
[7] = target: Mitogen-activated protein kinase kinase kinase 1 (Homo sapiens) (UniProt Q13233); experiment: Inhibition of human MEKK1 (877 to 1563 residues) assessed as enzyme activity at 1 uM using 33P ATP by radioactive filter binding assay; design: scale not given: the % may be the effect or the level left
[8] = target: Serine/threonine-protein kinase TAO1 (Homo sapiens) (UniProt Q7L7X3); experiment: Inhibition of human TAO1 (1 to 356 residues) assessed as enzyme activity at 1 uM using 33P ATP by radioactive filter binding assay; design: scale not given: the % may be the effect or the level left
[9] = target: Ephrin type-B receptor 2 (Homo sapiens) (UniProt P29323); experiment: Inhibition of human EPHB2 (560 to 987 residues) assessed as enzyme activity at 1 uM using 33P ATP by radioactive filter binding assay; design: scale not given: the % may be the effect or the level left
[10] = target: Serine/threonine-protein kinase MARK2 (Homo sapiens) (UniProt Q7KZI7); experiment: Inhibition of human MARK2 (2 to 691 residues) assessed as enzyme activity at 1 uM using 33P ATP by radioactive filter binding assay; design: scale not given: the % may be the effect or the level left
[11] = target: Misshapen-like kinase 1 (Homo sapiens) (UniProt Q8N4C8); experiment: Inhibition of human MINK1 (1 to 320 residues) assessed as enzyme activity at 1 uM using 33P ATP by radioactive filter binding assay; design: scale not given: the % may be the effect or the level left
[12] = target: Interleukin-1 receptor-associated kinase 1 (Homo sapiens) (UniProt P51617); experiment: Inhibition of human IRAK1 (1 to 712 residues) assessed as enzyme activity at 1 uM using 33P ATP by radioactive filter binding assay; design: scale not given: the % may be the effect or the level left
[13] = target: Ephrin type-B receptor 1 (Homo sapiens) (UniProt P54762); experiment: Inhibition of human EPHB1 (565 to 984 residues) assessed as enzyme activity at 1 uM using 33P ATP by radioactive filter binding assay; design: scale not given: the % may be the effect or the level left
[14] = target: Tyrosine-protein kinase ZAP-70 (Homo sapiens) (UniProt P43403); experiment: Inhibition of human ZAP70 (1 to 619 residues) assessed as enzyme activity at 1 uM using 33P ATP by radioactive filter binding assay; design: scale not given: the % may be the effect or the level left
[15] = target: Tyrosine-protein kinase JAK2 (Homo sapiens) (UniProt O60674); experiment: Inhibition of JAK2 (unknown origin) assessed as enzyme activity at 1 uM using 33P ATP by radioactive filter binding assay; design: scale not given: the % may be the effect or the level left
[16] = target: Phosphatidylinositol 4,5-bisphosphate 3-kinase catalytic subunit alpha isoform (Homo sapiens, UniProt P42336); experiment: Inhibition of PI3K alpha (unknown origin) at 10 uM
[17] = Solubility of the compound; format: physicochemical
[18] = target: T1, 3-phosphoinositide-dependent protein kinase 1 (Homo sapiens) (UniProt O15530); experiment: Selectivity ratio of IC50 for PDK1-mediated AKT phosphorylation at Thr308 in human PC3 cells to IC50 for human His6-tagged PDK1; format: cell-based; settings: PC-3
T1 sequence (whole entry): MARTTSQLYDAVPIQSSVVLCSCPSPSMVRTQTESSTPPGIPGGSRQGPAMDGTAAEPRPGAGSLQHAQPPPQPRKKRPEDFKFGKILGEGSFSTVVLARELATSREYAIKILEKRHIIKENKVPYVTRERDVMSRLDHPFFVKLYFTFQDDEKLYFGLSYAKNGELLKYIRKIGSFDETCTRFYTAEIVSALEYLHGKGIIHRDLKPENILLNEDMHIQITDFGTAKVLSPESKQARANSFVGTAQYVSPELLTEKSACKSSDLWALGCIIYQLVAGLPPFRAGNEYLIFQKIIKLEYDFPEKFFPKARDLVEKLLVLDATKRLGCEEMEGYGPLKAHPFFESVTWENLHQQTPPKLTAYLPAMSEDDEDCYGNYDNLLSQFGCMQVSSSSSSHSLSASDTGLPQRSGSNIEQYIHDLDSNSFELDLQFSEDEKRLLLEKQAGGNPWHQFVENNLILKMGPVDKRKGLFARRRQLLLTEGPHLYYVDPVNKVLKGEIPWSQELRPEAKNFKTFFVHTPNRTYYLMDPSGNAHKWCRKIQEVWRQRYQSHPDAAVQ

Homo sapiens = species on record: Homo sapiens; experiment: Selectivity ratio of IC50 for PI3K alpha (unknown origin) to IC50 for human His6-tagged PDK1
MAPK3 (ERK1) = experiment: Inhibition of human MAPK3 (2 to 379 residues) assessed as enzyme activity at 1 uM using 33P ATP by radioactive filter binding assay; design: scale not given: the % may be the effect or the level left

Sequence of Mitogen-activated protein kinase 1 (Homo sapiens) (P28482 whole entry, the tested form may be a part): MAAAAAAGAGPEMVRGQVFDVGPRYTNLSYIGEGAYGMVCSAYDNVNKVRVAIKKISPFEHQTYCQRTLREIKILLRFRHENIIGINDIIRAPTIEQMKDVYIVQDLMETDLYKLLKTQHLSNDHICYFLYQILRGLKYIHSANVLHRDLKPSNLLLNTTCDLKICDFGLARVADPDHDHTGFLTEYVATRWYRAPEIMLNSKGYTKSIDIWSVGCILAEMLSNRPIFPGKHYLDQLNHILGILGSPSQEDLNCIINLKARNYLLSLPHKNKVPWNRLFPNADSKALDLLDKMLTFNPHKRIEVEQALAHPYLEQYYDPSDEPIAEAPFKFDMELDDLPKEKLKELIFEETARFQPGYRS
Sequence of Misshapen-like kinase 1 (Homo sapiens) (Q8N4C8 whole entry, looked up, the tested form may be a part): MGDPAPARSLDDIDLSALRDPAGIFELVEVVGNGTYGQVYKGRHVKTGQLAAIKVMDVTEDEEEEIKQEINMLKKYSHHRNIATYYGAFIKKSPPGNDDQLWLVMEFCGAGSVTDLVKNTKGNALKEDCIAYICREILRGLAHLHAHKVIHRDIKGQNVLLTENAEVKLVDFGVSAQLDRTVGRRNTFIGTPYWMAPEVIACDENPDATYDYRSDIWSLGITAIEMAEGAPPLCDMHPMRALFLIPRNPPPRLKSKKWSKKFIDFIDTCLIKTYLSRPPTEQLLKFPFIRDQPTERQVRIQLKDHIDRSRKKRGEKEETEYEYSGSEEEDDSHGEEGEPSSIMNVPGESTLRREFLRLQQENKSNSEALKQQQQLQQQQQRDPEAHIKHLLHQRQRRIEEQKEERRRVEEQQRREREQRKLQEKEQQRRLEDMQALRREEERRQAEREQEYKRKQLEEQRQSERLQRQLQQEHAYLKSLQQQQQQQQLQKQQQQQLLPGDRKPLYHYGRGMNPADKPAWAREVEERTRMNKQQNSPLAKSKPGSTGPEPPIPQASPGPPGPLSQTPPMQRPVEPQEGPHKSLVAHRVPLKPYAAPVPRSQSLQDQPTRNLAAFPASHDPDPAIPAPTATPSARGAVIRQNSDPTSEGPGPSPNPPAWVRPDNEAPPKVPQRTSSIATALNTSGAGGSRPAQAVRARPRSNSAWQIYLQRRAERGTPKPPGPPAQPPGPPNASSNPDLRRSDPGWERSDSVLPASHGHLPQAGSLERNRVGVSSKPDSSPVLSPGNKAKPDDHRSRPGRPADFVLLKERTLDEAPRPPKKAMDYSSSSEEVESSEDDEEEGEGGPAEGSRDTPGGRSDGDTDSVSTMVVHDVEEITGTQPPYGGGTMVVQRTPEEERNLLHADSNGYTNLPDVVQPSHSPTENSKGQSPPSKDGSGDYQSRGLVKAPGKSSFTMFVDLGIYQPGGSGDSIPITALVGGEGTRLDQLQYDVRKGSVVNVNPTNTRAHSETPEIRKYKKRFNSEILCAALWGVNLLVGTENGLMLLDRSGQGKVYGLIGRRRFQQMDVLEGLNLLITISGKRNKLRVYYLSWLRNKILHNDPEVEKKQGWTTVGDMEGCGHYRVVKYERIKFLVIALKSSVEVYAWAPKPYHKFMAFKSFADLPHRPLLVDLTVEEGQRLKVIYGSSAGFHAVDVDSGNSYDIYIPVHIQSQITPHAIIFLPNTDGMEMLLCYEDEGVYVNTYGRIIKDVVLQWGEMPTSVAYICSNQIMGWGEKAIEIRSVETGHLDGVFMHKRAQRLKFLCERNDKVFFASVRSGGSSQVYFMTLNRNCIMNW
Sequence of Interleukin-1 receptor-associated kinase 1 (Homo sapiens) (P51617 whole entry, looked up, the tested form may be a part): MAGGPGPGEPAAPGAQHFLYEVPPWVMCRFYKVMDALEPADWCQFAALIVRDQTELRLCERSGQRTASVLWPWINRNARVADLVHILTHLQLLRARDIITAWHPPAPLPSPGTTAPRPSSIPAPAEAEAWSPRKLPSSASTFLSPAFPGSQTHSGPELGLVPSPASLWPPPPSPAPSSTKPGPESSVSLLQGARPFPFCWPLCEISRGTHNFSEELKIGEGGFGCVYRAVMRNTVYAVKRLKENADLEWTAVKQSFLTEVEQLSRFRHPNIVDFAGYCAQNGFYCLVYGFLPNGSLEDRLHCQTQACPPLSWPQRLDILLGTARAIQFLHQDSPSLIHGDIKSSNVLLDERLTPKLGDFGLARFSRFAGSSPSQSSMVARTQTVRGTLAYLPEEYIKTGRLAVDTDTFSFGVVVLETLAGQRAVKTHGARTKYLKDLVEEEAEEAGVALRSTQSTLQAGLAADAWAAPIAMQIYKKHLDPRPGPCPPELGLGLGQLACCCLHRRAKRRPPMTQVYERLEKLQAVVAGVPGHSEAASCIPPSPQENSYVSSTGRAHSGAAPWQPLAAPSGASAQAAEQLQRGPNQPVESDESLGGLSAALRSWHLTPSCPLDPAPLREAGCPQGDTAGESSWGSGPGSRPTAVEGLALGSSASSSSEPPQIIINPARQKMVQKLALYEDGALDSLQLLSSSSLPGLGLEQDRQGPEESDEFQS
Sequence of Ephrin type-B receptor 4 (Homo sapiens) (P54760 whole entry, the tested form may be a part): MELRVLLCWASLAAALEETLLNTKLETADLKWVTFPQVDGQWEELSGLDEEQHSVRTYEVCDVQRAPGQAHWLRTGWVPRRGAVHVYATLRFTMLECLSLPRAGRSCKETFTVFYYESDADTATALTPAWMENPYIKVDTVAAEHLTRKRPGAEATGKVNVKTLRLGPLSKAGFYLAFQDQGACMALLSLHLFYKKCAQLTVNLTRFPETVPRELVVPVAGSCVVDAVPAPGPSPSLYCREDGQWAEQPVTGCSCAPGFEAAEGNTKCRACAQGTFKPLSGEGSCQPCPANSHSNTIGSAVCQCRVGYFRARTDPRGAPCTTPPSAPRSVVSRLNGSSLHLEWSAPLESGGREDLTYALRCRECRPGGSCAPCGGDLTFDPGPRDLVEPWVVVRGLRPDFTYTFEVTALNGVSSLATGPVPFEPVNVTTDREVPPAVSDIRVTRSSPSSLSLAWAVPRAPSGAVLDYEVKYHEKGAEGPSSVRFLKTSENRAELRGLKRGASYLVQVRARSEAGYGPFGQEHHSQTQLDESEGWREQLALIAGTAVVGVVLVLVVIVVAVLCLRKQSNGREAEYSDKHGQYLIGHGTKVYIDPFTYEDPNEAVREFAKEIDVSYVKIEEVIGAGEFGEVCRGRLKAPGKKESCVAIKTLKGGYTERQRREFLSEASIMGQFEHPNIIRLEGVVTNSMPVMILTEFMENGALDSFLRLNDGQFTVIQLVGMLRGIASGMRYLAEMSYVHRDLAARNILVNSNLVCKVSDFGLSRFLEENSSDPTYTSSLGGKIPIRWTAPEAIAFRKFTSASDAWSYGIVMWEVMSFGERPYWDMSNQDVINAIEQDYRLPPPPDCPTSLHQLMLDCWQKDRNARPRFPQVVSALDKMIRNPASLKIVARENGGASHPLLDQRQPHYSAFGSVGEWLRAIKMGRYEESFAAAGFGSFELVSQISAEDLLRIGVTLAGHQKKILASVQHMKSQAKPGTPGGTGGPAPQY
Sequence of Serine/threonine-protein kinase MARK2 (Homo sapiens) (Q7KZI7 whole entry, the tested form may be a part): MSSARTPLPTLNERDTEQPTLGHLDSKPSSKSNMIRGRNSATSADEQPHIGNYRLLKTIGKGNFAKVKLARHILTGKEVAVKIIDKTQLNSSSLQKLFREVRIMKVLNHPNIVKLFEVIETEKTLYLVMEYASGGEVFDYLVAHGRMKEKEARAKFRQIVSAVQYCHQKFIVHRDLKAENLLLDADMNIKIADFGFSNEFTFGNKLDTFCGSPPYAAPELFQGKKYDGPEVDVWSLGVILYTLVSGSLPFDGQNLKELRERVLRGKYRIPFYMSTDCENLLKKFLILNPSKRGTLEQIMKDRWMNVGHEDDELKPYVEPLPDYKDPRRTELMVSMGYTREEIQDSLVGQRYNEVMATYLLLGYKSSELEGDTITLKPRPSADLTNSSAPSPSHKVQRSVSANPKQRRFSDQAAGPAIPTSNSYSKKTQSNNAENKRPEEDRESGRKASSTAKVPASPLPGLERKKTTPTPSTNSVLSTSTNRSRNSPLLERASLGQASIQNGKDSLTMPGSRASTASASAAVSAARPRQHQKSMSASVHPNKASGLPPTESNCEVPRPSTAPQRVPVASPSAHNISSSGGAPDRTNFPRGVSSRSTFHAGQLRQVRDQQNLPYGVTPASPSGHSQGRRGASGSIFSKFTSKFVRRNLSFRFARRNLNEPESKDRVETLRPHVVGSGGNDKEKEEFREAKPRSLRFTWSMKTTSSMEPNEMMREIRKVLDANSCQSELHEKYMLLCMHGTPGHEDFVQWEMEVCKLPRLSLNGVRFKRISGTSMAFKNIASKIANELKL

Activity [1]: -14%
Activity [2]: -36%
Activity [3]: -5%
Activity [4]: 4%
Activity [5]: -3%
Activity [6]: -83%
Activity [7]: -10%
Activity [8]: -15%
Activity [9]: 15%
Activity [10]: -23%
Activity [11]: -78%
Activity [12]: -49%
Activity [13]: -10%
Activity [14]: -3%
Activity [15]: -25%
Compound: Nc1nccc(-c2c[nH]c3ncccc23)n1 [MERIOLIN 1]

inhibition [16]: 80%
Compound: CCc1cc(-c2c[nH]c3ncc(-c4cnn(C5CCNCC5)c4)cc23)nc(N)n1

solubility [17]: > 1000 µg/mL
Compound: CCCCc1cc(-c2c[nH]c3ncccc23)nc(N)n1

Ratio IC50 [18]: 30
Ratio IC50 (Homo sapiens): 65
Activity (MAPK3 (ERK1)): -32%
Compound: CCCCc1cc(-c2c[nH]c3ncc(-c4cnn(C5CCNCC5)c4)cc23)nc(N)n1
